Reference: patent US20020002171A1, “Materials and methods for killing nematodes and nematode eggs” (priority 2000, published 2002)

Test system: Caenorhabditis elegans
Assay: C. elegans L1 nematicidal dose response in 96-well plates, 5 day visual score (Example 2; same procedure for Example 7, Table 3)
Assay type: in vivo
Set-up: key to 5 Day Visual Score V1 / 5 Day Visual Score V2 / 5 Day Visual Score V3 / 5 Day Visual Score V4 / 5 Day Visual Score V6 / 5 Day Visual Score V5 / Initial HTS Run Visual Score / Follow-up HTS Run Visual Score: Dead: only stiff L1s (no movement); Dead (L4): worms are dead, but at a later larval stage; majority of worms are L1 (based on size) worms move when plate is tapped; majority of worms are L2 (based on size); majority of worms are L3 (based on size); majority of worms are L4 (based on size); AD: majority of worms are adult; #AD: 5 adult worms or less; B!: sterile (0-25 progeny); B: low broodsize (25-100 progeny); ˜B: moderate broodsize (100-250 progeny); <: reduced broodsize (250-500 progeny); OK: no effect (˜1000+ progeny)
Experimental: Caenorhabditis elegans adults were grown on Nematode Growth Medium (NGM) until they produced eggs, then the adults were removed.
The eggs were allowed to hatch, and the L1 larvae collected. See The Nematode Caenorhabditis elegans (1988) Cold Spring Harbor Laboratory Press. Using a Matrix Programmable Pipette, the L1s were distributed into 96-well tissue culture plates, 20 L1 in 50 μl NGM per well. Antibiotic/Antimyoticwas added to each well, and 1% by weight E. coli strain HB101. The subject anthelmintic compounds were stored at 5 mM in 100% DMSO. 0.7 μl of compounds 1-31 were added to the left-most column of wells to yield a final concentration of 70 μM in 1.4% DMSO, with 1.4% DMSO only as the control. The compounds were then subjected to 5 more 3-fold dilutions from left to right to yield 6 column concentrations of 70 μM, 23.3 μM, 7.8 μM, 2.6 μM, 0.9 μM, and 0.3 μM. Plates were stored in air-tight Rubbermaid plastic boxes at 20° C. The nematodes had cleared all control wells by day 4, and nematode viability was scored by visual examination under a 100× dissecting microsope on day 5. A visual viability scoring system was used as follows:
Column V1 has a compound concentration of 70 μM with sequential 3-fold dilutions reported in columns V2, V3, V4, V5, and V6, respectively, such that the V6 concentration was 0.3 μM.
The nematicidal activity of anthelmintic Compositions 48-168 were determined in accordance with the procedure outlined in Example 2.

[1] = dose response, dilution V2, day 5
[2] = dose response, dilution V3, day 5
[3] = dose response, dilution V4, day 5
[4] = dose response, dilution V5, day 5
[5] = dose response, dilution V6, day 5
[6] = dose response, dilution V1, day 5

Structure (SMILES) | Follow-up HTS Run % Run [%] | Follow-up HTS Run Visual Score | Follow-up HTS Run mOD [mOD] | Initial HTS Run % Run [%] | Initial HTS Run Visual Score | Initial HTS Run mOD [mOD] | 5 Day Visual Score V2 [1] | 5 Day Visual Score V3 [2] | 5 Day Visual Score V4 [3] | 5 Day Visual Score V5 [4] | 5 Day Visual Score V6 [5] | 5 Day Visual Score V1 [6] | also measured
CCN(c1nc(NCc2c(F)cccc2F)ns1)C1CCCCC1 [compound 297] | 109 | L4/AD/B | 175 | 104 | L4/AD/B!-Few Eggs | 114 | B (low broodsize (25-100 progeny)) | OK (no effect (˜1000+ progeny)) | OK (no effect (˜1000+ progeny)) | OK (no effect (˜1000+ progeny)) | OK (no effect (˜1000+ progeny)) |  | 
CCCCCCCCCCNc1nsc(N(CC)C2CCCCC2)n1 [compound 276] | 116 | Dead | 187 | 116 | Dead | 128 | Dead |  | OK (no effect (˜1000+ progeny)) | OK (no effect (˜1000+ progeny)) | OK (no effect (˜1000+ progeny)) | Dead | 
O=C(Nc1ccc(Br)cc1)NC1CCC(c2nc(-c3ccccc3)no2)CC1 (stereo not drawn) [AKC 114] |  |  |  |  |  |  |  |  |  |  |  |  | 5 Day Visual Score V6 (0.3 μM, C. elegans L1, scored day 5): ˜B (moderate broodsize (100-250 progeny)); 5 Day Visual Score V4 (2.6 μM, C. elegans L1, scored day 5): L3/Dead(L; 5 Day Visual Score V3 (7.8 μM, C. elegans L1, scored day 5): L3; 5 Day Visual Score V2 (23.3 μM, C. elegans L1, scored day 5): L3/Dead(L4); 5 Day Visual Score V1 (70 μM, C. elegans L1, scored day 5): Dead
CC1CC(C)CN(c2nc(NCc3ccc(C(F)(F)F)cc3)ns2)C1 (stereo not drawn) [compound 248] | 112 | L3/L4/AD/B! | 181 | 99 | L3/L4/AD/B | 109 | ˜B (moderate broodsize (100-250 progeny)) | < (reduced broodsize (250-500 progeny)) | OK (no effect (˜1000+ progeny)) | OK (no effect (˜1000+ progeny)) | OK (no effect (˜1000+ progeny)) |  | 
CCCCCCCCCCNc1nsc(N(C)CCc2ccc(OC)c(OC)c2)n1 [compound 285] | 131 | Dead | 211 | 149 | Dead | 164 | Dead |  | ˜B (moderate broodsize (100-250 progeny)) | OK (no effect (˜1000+ progeny)) | OK (no effect (˜1000+ progeny)) | Dead | 
CCOC(=O)CCN(Cc1ccccc1)c1nc(N2CCN(c3ccc(F)cc3)CC2)ns1 [compound 238] | 122 | L4/AD/B | 197 | 135 | L4/Ad/B! | 148 |  | < (reduced broodsize (250-500 progeny)) | < (reduced broodsize (250-500 progeny)) | OK (no effect (˜1000+ progeny)) | OK (no effect (˜1000+ progeny)) | L1 | 
CN(CCc1ccccc1)c1nc(NCc2ccccc2C(F)(F)F)ns1 [compound 322] | 111 | B (low broodsize (25-100 progeny)) | 178 | 94 | B!-Clear-Few Eggs | 103 |  |  |  |  |  |  | 5 Day Visual Score V1 (dose response, dilution V1, 5 day): B! (sterile (0-25 progeny)); 5 Day Visual Score V3 (dose response, dilution V3, 5 day): OK (no effect (˜1000+ progeny)); 5 Day Visual Score V4 (dose response, dilution V4, 5 day): OK (no effect (˜1000+ progeny)); 5 Day Visual Score V5 (dose response, dilution V5, 5 day): OK (no effect (˜1000+ progeny)); 5 Day Visual Score V6 (dose response, dilution V6, 5 day): OK (no effect (˜1000+ progeny))
CCN(Cc1ccccc1)c1nc(NCc2c(F)cccc2F)ns1 [compound 299] | 115 | L4 | 185 | 105 |  | 116 | ˜B (moderate broodsize (100-250 progeny)) | ˜B (moderate broodsize (100-250 progeny)) | OK (no effect (˜1000+ progeny)) | OK (no effect (˜1000+ progeny)) | OK (no effect (˜1000+ progeny)) | L4#AD/B | 
Cc1cccc(C)c1N1CCN(c2nc(NCCc3ccc(Oc4ccccc4)cc3)ns2)CC1 [compound 269] | 132 | L4/AD/B | 212 | 166 | L4/1AD/B | 183 |  | OK (no effect (˜1000+ progeny)) | OK (no effect (˜1000+ progeny)) | OK (no effect (˜1000+ progeny)) | OK (no effect (˜1000+ progeny)) | Dead | 
CC1CC(C)CN(c2nc(NCc3c(F)cccc3F)ns2)C1 (stereo not drawn) [compound 245] | 117 | B! (sterile (0-25 progeny)) | 189 | 103 | B!-Few Eggs | 113 | #AD/˜B | < (reduced broodsize (250-500 progeny)) | OK (no effect (˜1000+ progeny)) | OK (no effect (˜1000+ progeny)) | OK (no effect (˜1000+ progeny)) | L2/Dead(L3) | 
